Data: patent US20090274739A1, “METHODS AND COMPOSITIONS FOR TREATING NEOINTIMAL HYPERPLASIA” (THE TRUSTEES OF COLUMBIA UNIVERSITY IN THE CITY OF NEW YORK, priority 2006, published 2009)

Experiments:
[1] = system: MAPK (p44/p42, ERK1/2) phosphorylation; test: Immunoblot of MAPK (ERK1/2, p44/p42) phosphorylation in VSMC; type: cell-based, mouse
Protocol: (§1) Western blot analysis: The cells were plated in a 100-mm culture dish in DMEM supplemented with 20% FBS for 24 h at 37° C., followed by serum starvation for 48 h. Cells were then treated with different reagents for 30 min. Cells were subsequently lysed on ice for 30 min in RIPA buffer [150 mM NaCl, 100 mM Tris (pH 8.0), 1% Triton X-100, 1% deoxycholic acid, 0.1% SDS, 5 mM EDTA, and 10 mM NaF] supplemented with 1 mM sodium vanadate, 2 mM leupeptin, 2 mM aprotinin, 1 mM phenylmethylsulfonyl fluoride (PMSF), 1 mM DTT, and 2 mM pepstatin A. After centrifugation at 14,000 rpm for 30 min, the supernatant was harvested as the total cellular protein extract, and stored at −70° C. The protein concentration was determined using Bio-Rad protein assay reagent (Richmond, Calif.). The total cellular protein extracts were separated by SDS-polyacrylamide gel electrophoresis (SDS-PAGE) and transferred to nitrocellulose membrane in 20 mM Tris-HCl (pH 8.0) containing 150 mM glycine and 20% (v/v) methanol.
Membranes were blocked with 5% nonfat dried milk in PBS containing 0.05% Tween 20 and incubated with antibodies against phospho-(Thr^202/Tyr^204) p42/p44^MAPK and p42/p44^MAPK, phospho-Akt([…]) and anti-Akt, p70^S6K, 4EBP-1. Blots were washed three times in PBS buffer, followed by incubation with the appropriate HRP-linked IgG. The specific proteins in the blots were visualized using an enhanced chemiluminescence reagent (NEN, Boston, Mass.).
(§2) VSMC were plated on 100-mm dishes, serum starved for 72 h in DMEM containing 0.1% FBS, and stimulated with 0.6 or 6 nM (10 or 100 ng/ml) leptin. Extracts were prepared by brief sonication in HKM buffer [40 mM HEPES-KOH (pH 7.6), 7.5 mM MgCl2, 0.5 mM DTT] or, in the case of Akt phosphorylation studies, by lysing cells on ice for 30 min in RIPA buffer. 70 μg of protein per sample were subjected to immunoblotting by standards protocols. Imaging and densitometry were performed on an Odyssey infrared system (Li-Cor, Lincoln, Neb.).

[2] = system: p70S6K and 4E-BP1 phosphorylation (mTOR substrates); test: Immunoblot of p70S6K and 4E-BP1 phosphorylation in VSMC; type: cell-based, mouse
Protocol: as §1
Blots were washed three times in PBS buffer, followed by incubation with the appropriate HRP-linked IgG. The specific proteins in the blots were visualized using an enhanced chemiluminescence reagent (NEN, Boston, Mass.).
Starved murine VSMCs were incubated for 20 min with leptin (100 ng/ml) or 10% FBS, in the absence or presence of rapamycin (100 nmol/L).
as §2

[3] = system: murine femoral artery wire injury model (neointimal hyperplasia); test: Femoral artery wire injury model, morphometry of neointimal formation; type: in vivo, mouse; set-up: Lumen / Media / Intima / TVA (total vessel area): unit not given here
Description: Animal Models and Drug Treatments. Wild type C57BL/6J background mice and mice deficient for leptin (C57BL/6J-Lepob; ob/ob) or the leptin receptor (C57BL/6J-m+/+Lepdb; db/db) were purchased from Charles Jackson Laboratories, Maine. Mice were obtained at ages 6-8 weeks old and average weight 15 g. Animals were fed standard rodent chow and tap water ad libitum. Procedures and animal care were approved by the Institutional Animal Care and Use Committee. Mice were subjected to femoral artery wire injury or sham injury described below 24 hr prior to starting pharmacological treatments. Sirolimus was administered by intraperitoneal injection once per day for 14 days as a suspension in 0.2% sodium carboxymethyl cellulose and 0.25% polysorbate-80; duplicate experiments were accomplished with 0.5% DMSO. Leptin or LY294002 was administered by intraperitoneal injection once per day for 14 days as a suspension in PBS. Plasma leptin levels were measured at baseline, 3, 6, and 10 hr after leptin injection using an ELISA assay (R&D). Leptin plus the vehicle used for both sirolimus and LY294002 was used as the control group for the treatment groups with sirolimus and LY294002. After the 2-week treatment, animals were processed for femoral artery morphometry.
Femoral Artery Injury Model. Endoluminal injury of bilateral femoral arteries was performed according to the method of Roque et al. with minor modification 27. […] Briefly, to denude and dilate femoral arteries, a 0.014″ angioplasty guidewire (Guidant) was passed endoluminally 3 times to the level of the aortic bifurcation. A sham protocol was performed where the arteries underwent dissection, clamping, and ligature without passage of the guidewire.
Computer-aided quantitative morphometry to measure luminal, medial, intimal, and vessel areas were performed as previously described 27 with minor modification. Mice were euthanized via CO2 asphyxiation prior to en bloc excision of hind limbs. Briefly, multiple segments of the common femoral artery at the level of injury were fixed in 10% Zinc Formalin, embedded in paraffin, sectioned at […] thickness, and subjected to Elastic-Van Gieson staining at a Columbia University Core Histology facility. In many cases, arteries underwent immunohistochemical staining for smooth muscle a-actin to highlight the media and neointima. Photomicrographs were captured on Adobe Photoshop 7.0 and transferred to Scion Image software for quantitative analysis. Specimens were analyzed by two independent operators blinded to the treatment groups. Microsoft Excel software was used to calculate the RNI values from I/M ratios in the absence and presence of pharmacological inhibitors, as detailed in the text.
Surgical Procedures: The mouse femoral artery wire injury model of was used with minor modifications (Roque M, et al., Arterioscler Thromb Vasc Biol, 2000, 20(2):335-42). Briefly, forty-two male mice were studied. Endoluminal injury to the common femoral artery was produced by either 3 passages of a 0.014″ diameter angioplasty guidewire (Guidant, Santa Clara, Calif.). […] While being viewed under a surgical microscope, a groin incision was made and the femoral artery was isolated and temporarily clamped distal to the inguinal ligament. An arteriotomy was performed and the guidewire was passed 3 times to the level of the aortic bifurcation. The artery was then ligated proximal to the arteriotomy. A sham protocol was carried out on the contralateral side where the arteries underwent dissection, temporary clamping, and ligature, without passage of the wire. The formation of the neointima was confirmed in this model as being comprised mainly of VSMCs through immunohistochemical staining of representative sections for α-smooth muscle actin via a commercial kit (Sigma).
For all treatment protocols, rapamycin was administered by intraperitoneal injection once per day, for 14 days, as a suspension in 0.2% sodium carboxymethyl cellulose and 0.25% polysorbate-80. […]

[4] = wire injury, leptin 0.4 mg/kg daily i.p. 14 days, mean ± SD

With “Leptin: recombinant leptin; hormone derived from adipose tissue, encoded by the Ob gene” the “phosphorylation of the p44 and p42 forms of MAPK” value ([1]; Example 1, leptin 10 ng/mL) was “stimulated the phosphorylation”, the “time of maximum ERK1/2 phosphorylation” value ([1]; Example 2, leptin 100 ng/ml, decreasing thereafter at 45 min) was 10 min and the “phosphorylation of MAPK” value ([1]; Example 5, leptin 6 nM) was “stimulated”. The “phosphorylation of S6K and 4EBP-1” value ([2]; Example 1, leptin 10 ng/mL, data not shown) was “stimulated the phosphorylation”, the “phosphorylation of p70S6K and 4E-BP1” value ([2]; Example 2, leptin 100 ng/ml) was “up-phosphorylated” and the S6K phosphorylation ([2]; Example 5, leptin 0.6 nM, data not shown) was “stimulated S6K phosphorylation, albeit less robustly”. For the same substance, the “phosphorylation of S6K” value ([2]; Example 5, leptin 6 nM) was “stimulated the phosphorylation”, the “intimal area and intimal:media ratio” value ([3]; Example 2, leptin 0.4 mg/kg/d i.p. 14 days vs vehicle) was “significantly increased” and the “I/M (intima:media ratio)” value [3, 4] was 1.883 ± 0.140. It also gave an Intima [3, 4] of 0.028 ± 0.004, a Lumen [3, 4] of 0.010 ± 0.004 and a Media [3, 4] of 0.015 ± 0.001. For the same substance, the “TVA (total vessel area)” value [3, 4] was 0.053 ± 0.007.
